Test results: ChEMBL document CHEMBL6078621, “Macrocyclic-based strategy in drug design: From lab to the clinic” (Eur J Med Chem, 2024)
One block for each compound: values may come before it. Starred links: 1 amine or outer side, 2 acyl side, 3 side chain; linkers in the order of their positions; H or OH if unused. Positions of bridges follow the written chain, without caps; N, C: chain ends. Non-standard residues stand in square brackets, D forms with d. Residues, ends and D or L forms follow the SMILES beside them. *: point of attachment. Phe(4-Cl) = N[C@@H](Cc1ccc(Cl)cc1)C(=O)O; 2Thi = N[C@@H](Cc1cccs1)C(=O)O; Agmatine = N=C(N)NCCCCN*; X1 = O=C(CCC[*:2])[*:1]; Mpa = O=C(O)CCS; NEt2 = CCN(CC)*

Key:
[1] = Intrinsic clearance in human liver microsomes; assay type: ADME, Microsome
[2] = Plasma clearance in Sprague-Dawley rat at 1 mg/kg, iv measured upto 24 hrs by LC-MS/MS analysis; assay type: ADME, organism-based
Huh-7 = assay: Cytotoxicity against human Huh-7 cells assessed as inhibition of cell viability incubated for 24 hrs by MTT assay; assay type: functional
[3] = Microsomal stability in human liver microsomes assessed as intrinsic clearance; assay type: ADME, Microsome
[4] = AUC in Sprague-Dawley rat at 10 mg/kg, po by LC-MS/MS analysis; assay type: ADME, organism-based; details: in vivo
[5] = AUC in Sprague-Dawley rat at 2 mg/kg, iv by LC-MS/MS analysis; assay type: ADME, organism-based; details: in vivo
[6] = Half life in mouse; assay type: ADME, organism-based; details: in vivo
[7] = Half life in dog; assay type: ADME, Canis lupus familiaris; details: in vivo
[8] = Half life in rat; assay type: ADME; details: in vivo
[9] = Clearance in Sprague-Dawley rat at 0.5 mg/kg, iv by LC-MS/MS analysis; assay type: ADME, organism-based; details: in vivo
[10] = Oral bioavailability in Sprague-Dawley rat at 5 mg/kg by LC-MS/MS analysis; assay type: ADME, organism-based; details: in vivo
[11] = AUC in Wistar rat; assay type: ADME; details: in vivo
[12] = Oral bioavailability in human; assay type: ADME, organism-based; details: in vivo
in vitro = details: human, liver microsomes
[13] = Solubility of the compound; assay type: physicochemical
[14] = Cmax in human at 8 mg/kg, po; assay type: ADME, organism-based; details: in vivo
[15] = Plasma protein binding in human; assay type: ADME, cell-free; details: read-out: PPB

Compound: COc1ccc2c(O[C@@H]3C[C@H]4C(=O)N[C@]5(C(=O)NS(=O)(=O)C6CC6)C[C@H]5/C=C\CCCCN(C)C(=O)[C@@H]4C3)cc(-c3ccccc3)nc2c1
CLH [1]: 46 µL/min/mg
clearance [2]: 46.5 mL/min/kg
CC50 (Huh-7): > 20 µM

Compound: C/C1=C/C=C/[C@H](C)[C@H](O)[C@@H](C)[C@@H](O)[C@@H](C)[C@H](OC(=O)O)[C@H](C)[C@@H](OO)/C=C/O[C@@]2(C)Oc3c(C)c(O)c4c(O)c(c(/C=N/N5CCC(N(C)C6([C@@H]7CCN(c8cc9c(C%10CC%10)cc(C(=O)O)c(=O)n9cc8F)C7)CC6)CC5)c(O)c4c3C2=O)CC1=O
half-life [6]: 24 min
half-life [7]: 96 min
half-life [8]: 24 min

Compound: CC(C)[C@@H]1NC(=O)[C@H](Cc2ccccc2)NC(=O)[C@H](Cc2ccc(O)cc2)NC(=O)CCSSC[C@@H](C(=O)N2CCC[C@H]2C(=O)N[C@H](CCCNC(=N)N)C(=O)NCC(N)=O)NC(=O)[C@H](CC(N)=O)NC1=O ([Mpa]YFVNCP[dR]G-NH2; disulfide 1-6)
clearance [9]: 9.6 mL/min/kg
bioavailability [10]: 31%

Compound: CC(C)[C@@H]1NC(=O)[C@H](Cc2cccs2)NC(=O)[C@H](Cc2ccc(Cl)cc2)NC(=O)CCCSC[C@@H](C(=O)N2CCC[C@H]2C(=O)NCCCCNC(=N)N)NC(=O)[C@H](CC(N)=O)NC1=O ([Phe(4-Cl)][2Thi]VNCP-Agmatine; linker N-5 via X1)
clearance [9]: 14 mL/min/kg

Compound: CCN(CC)C(=O)[C@@H](CCCNC(=N)N)NC(=O)[C@@H]1CCCN1C(=O)[C@@H]1CSCCCC(=O)N[C@@H](Cc2ccc(Cl)cc2)C(=O)N[C@@H](Cc2cccs2)C(=O)N[C@@H](C(C)C)C(=O)N[C@@H](CC(N)=O)C(=O)N1 ([Phe(4-Cl)][2Thi]VNCP[dR]-NEt2; linker N-5 via X1)
clearance [9]: 42 mL/min/kg

Compound: NC(=O)CC[C@@H]1NC(=O)[C@H](Cc2ccccc2)NC(=O)[C@H](Cc2ccc(O)cc2)NC(=O)CCSSC[C@@H](C(=O)N2CCC[C@H]2C(=O)N[C@H](CCCN=C(N)N)C(=O)NCC(N)=O)NC(=O)[C@H](CC(N)=O)NC1=O [DESMOPRESSIN]
bioavailability [10]: 41%

The remaining lines, values ahead:

CLH [3]: 6 µL/min/mg
AUC [4]: 2.79 µM·h
AUC [5]: 5.21 µM·h
Compound: COc1ccc2c(O[C@@H]3C[C@H]4C(=O)N[C@]5(C(=O)NS(=O)(=O)C6CC6)C[C@H]5/C=C\CCCCN(C)C(=O)[C@@H]4C3)cc(-c3nc(C(C)C)cs3)nc2c1C

AUC [11]: 3.48 µM·h
Compound: C[C@H]1Oc2cc(cnc2N)-c2c(nn(C)c2C#N)CN(C)C(=O)c2ccc(F)cc21 [LORLATINIB]

bioavailability [12]: 18%
Compound: C[C@@H]1CCC[C@H](n2cnc(-c3cc(Cl)ccc3-n3cc(Cl)nn3)cc2=O)c2cc(ccn2)-c2c(cnn2C(F)F)NC1=O [MILVEXIAN]

half-life (in vitro): > 60 min
solubility [13]: > 150 µg/mL
Compound: C1=C/COCc2cc(ccc2OCCN2CCCC2)Nc2nccc(n2)-c2cccc(c2)COC/1 [PACRITINIB]

Cmax [14]: 1400 nM
Compound: C[C@@H]1CN[C@@H](C2CC2)C(=O)N(C)[C@H](C)C(=O)N[C@H](Cc2ccc(F)cc2)C(=O)NCCCc2ccccc2O1 [ULIMORELIN]

fraction unbound [15]: 0.001
Compound: CN1C/C=C/CCOc2cccc(c2)-c2ccnc(n2)Nc2cccc(c2)C1 [ZOTIRACICLIB]
